{
  "source": "patent US20090106856A1",
  "about": "“Selection System for Wheat” (BASF PLANT SCIENCE GMBH, priority 2005, published 2009)",
  "key": {"[1]": {"tested_on": "wheat variety Canon immature embryos / embryogenic callus", "experiment": "Agrobacterium-mediated transformation with dao1 constructs and selection of transgenic plants", "type": "cell-based, Triticum aestivum", "conditions": "pRLM205 (dao1 original), 5 mM selection", "protocol": "(§1) Explants were washed with PAW-Inf. medium and immersed in the above-described bacterial suspension for 2 h at 26° C. At the end of infection the explants were placed with scutellum side up on PAW-1 medium. The residual bacterial suspension is removed by pipeting out and air-drying of the infected embryos by opening plates for 15 min on the sterile banch. Plates were sealed with Parafilm and placed in thermostat at 26° C. in the dark for 5-6 days co-cultivation.\n(§2) After co-cultivation period the explants were washed with sterile water and 500 mg/L Cefotaxime and filter paper dried before being transferred to PAW-2 callus induction-recovery medium containing 160 mg/l Timentin for 14 days (7 days dark/7 days semi light; 13.2 μmol m^−2s^−1). Explants with embryogenic callus were subculture to PAW-2 callus-proliferation medium containing 160 mg/l Timentin and corresponding selection 5 mM D-serine or 5 mM D-alanine or 3 mg/l bialaphos. In some experiments the selection on D-amino acids was starting on PAW-2 callus induction medium 0, 7, 14 and 21 days after co cultivation. Embryogenic callus was subculture twice on fresh selective medium for callus maintaining and regeneration on PAW-4 medium with corresponding selection. Cultures were maintained at 23° C. on light 60.2 μmol m^−2s^−1. Regenerated shoots were subculture to PAW-5 hormone free medium with corresponding selection (5 mM D-serine or 5 mM D-alanine or 3 mg/l bialaphos) for further growth and rooting. All media used in the transformation experiments were filter sterilized and are listed in above. After analyses transgenic plants were transferred to soil and placed for further growth in greenhouse. 1.4 Molecular and expression studies of the transgenic plants\nFreshly isolated immature embryos from Canon were inoculated with Agrobacterium. In all experiments Agrobacterium tumefactions super binary vector system based on LBA4404 (pSB1) was used. The constructs pRLM205 containing the original dao1 gene and pRLM226 carrying modified Daol. Both constructs contain gusINT reporter marker gene (FIGS. 3, I and II). Following co cultivation the explants were transferred on callus induction PAW-2 selection free medium containing 160 mg/l Timentin to inhibit bacterial growth for 14 days. For selection embryogenic callus was transferred to PAW-2 selection medium containing 5 mM D-serine or 5 mM D-alanine respectively. Furthermore calli were sub cultured to fresh corresponding selection PAW-2 medium for maintaining. Embryogenic calli were trans-ferred on PAW-4 selection medium for regeneration 5-6 weeks after transformation. The emerging plantlets were further grown and rooted on PAW-5 hormone free selection medium. Well-developed and rooted on selection putative transgenic regenerants were selected in vitro within. When D-alanine was used as selection compound similar effects in callus growth, shoots regeneration and rooting of transgenic plants or non transgenic escapes selected on D-serine was observed. Both selection agents resulted with 1.1% to 1.2% transformation efficiency and no escape rate (Table 9)."}, "wheat callus": {"tested_on": "wheat callus", "experiment": "Killing curve: callus growth and regeneration under constant selection pressure", "type": "cell-based, Triticum aestivum", "protocol": "To define the sensitivity of wheat tissues during transformation when D-Serine and D-Alanine are present as selection agents regeneration experiments with immature embryos were designed. Immature embryos were immersed in PAWinf medium and subjected to all steps of callus induction, callus maintaining and regeneration in transformation protocol above.\nSensitivity of callus tissue under constant selection pressure were evaluated using range of concentrations: 0.5 mM, 1 mM, 3 mM, 5 mM, 10 mM, 25 mM, 50 mM. Experiments were performed in triplicates. Percentage of embryos forming embryos-genic callus was scored on PAW-4 regeneration medium. At the end of shoots elongation regeneration capacity of the calluses was scored as calluses regenerating shoots and number of shoots per callus.\nRange of the tested concentrations 0.5-50 mM D-ser and D-ala are evaluated in replicating regeneration experiments. The effect of selective compounds is estimated during callus growth and shoots formation following transformation procedure on medium with D-serine and D-alanine (Table 4)."}, "wheat immature embryos": {"tested_on": "wheat immature embryos", "experiment": "Killing curve: in vitro germination of immature embryos and seedling growth", "type": "in vivo, Triticum aestivum", "protocol": "In order to establish effective concentrations of D-serine and D-alanine on inhibiting growth of tissue cultured wheat cells, a bioassay system using immature embryos was applied. Immature embryos 2 mm in length were dissected onto germination medium with the selection agents, and incubated at 27° C. in light. The number of germinated embryos with well-developed shoots and brunched shoots were scored after 14 days.\nImmature embryos 2 mm in size were isolated from the sterilized caryopses. The embryos were cultured on PAW-5 hormone free medium for germination in dark. Seedlings growth on D-amino acid selection was observed after 2 weeks. Most of the embryos germinated but the seedlings growth was inhibited when roots emerge and the uptake of the selection compound was direct from the medium. The Lethal Dose (LD 100) for seedlings germination and growth was 1 mM concentration of both D-amino acids tested (Table 6). Seedlings derived from embryos isolated from the immature caryopsis without endosperms were susceptible to the selection in concentration higher than 1 mM (FIG. 8)."}, "wheat in vitro shoots": {"tested_on": "wheat in vitro shoots", "experiment": "Killing curve: rooting of in vitro shoots", "type": "in vivo, Triticum aestivum", "source_text": "[…] The effect of selection agents was observed two and tree weeks later. Number of plantlets with growing roots and green leaves were scored.\nIn vitro regenerated shoots from media lacking the selection compounds were collected and transferred on medium for rooting (½ MS salts hormone free). Roots formation, growth of the shoots and leaves elongation was scored two and four weeks later after sub culturing of these shoots to the medium supplemented with D-amino acids (Table 5)."}, "[2]": {"tested_on": "Transgenic T1 dao1 seedlings", "experiment": "Negative selection of transgenic T1 dao1 seedlings", "type": "in vivo, Triticum aestivum", "protocol": "T1 immature embryos were assayed with bioassay for germination of immature embryos on selection. […] Furthermore transgenic T1 seedlings were tested for negative selection using D-isoleucine and D-valine containing medium. Transgenic T1 dao1 seedlings were sensitive to the concentrations range from 10 to 30 mM D-isoleucine and 15-20 mM D-valine (FIG. 11)."}, "[3]": {"tested_on": "wheat variety Canon immature embryos / embryogenic callus", "experiment": "Agrobacterium-mediated transformation with dsdA constructs and selection of transgenic plants", "type": "cell-based, Triticum aestivum", "protocol": "as §1, §2\nFreshly isolated immature embryos from Canon were inoculated with Agrobacterium. In all experiments Agrobacterium tumefacience LBA4404 (pSB1/pRLM167) (SEQ ID NO: 11) was used. The pRLM167 is a super binary vector containing p-ZmUBI+I::c-dsdA::t-OCS and p-ZmUBI+I::c-PAT::t-OCS selectable marker genes in expression cassettes (FIG. 1). Following co cultivation the explants were given a chance to recover for 14 days on callus induction selection free medium containing 160 mg/l Timentin to inhibit bacterial growth. Under these conditions 59% to 76% of the embryogenic callus developed over the all surface of immature embryos. Embryogenic callus was split in two and transferred to two the corresponding selection medium containing 5-mM D-serine or 3 mg/l bialaphos. During subsequent growth of callus, regeneration of plantlets, shoots elongation and roots formation the respective selection pressure was maintained in each of the corresponding medium. After 7 weeks of selection 38%-47% of the embryogenic calli regenerated with plants when selected on bialaphos or on D-serine respectively. Further selection of the regenerants was performed during the elongation and rooting of the regenerants for an additional 3 weeks. Intact in vitro transgenic shoots were selected within 10-12 weeks after co cultivation.\nFreshly isolated immature embryos from Canon were inoculated with Agrobacterium. In all experiments Agrobacterium tumefacience super binary vector system based on LBA4404 (pSB1) was used. The constructs pRLM179, pRLM166, pRLM151 (FIG. 2. I, II and III) containing dsdA selectable marker gene alone or with a second gene (ahas or gusINT) were used for transformation. The explants were cultured on selection medium right away after co-cultivation with Agrobacterium or were cultivated on callus induction—recovery medium for 7, 14 and 21 days containing only 160 mg/l Timentin for inhibiting bacterial growth. Furthermore calli were sub cultured to fresh selection PAW-2 medium for proliferation. Embryogenic calli were transferred on PAW-4 selection medium for regeneration 5-6 weeks after transformation. The emerging plantlets were further grown and rooted on PAW-5 hormone free selection medium. […]"}, "[4]": {"conditions": "construct pRLM167 (dsdA/pat), selection on 5 mM D-serine or 3 mg/l bialaphos"}},
  "data": [
    {"smiles": "C[C@@H](N)C(=O)O", "note": "[D-alanine]", "values": [
      {"measurement": "ER (%) Escape Rate", "setting": "[1]", "result": 0, "unit": "%"},
      {"measurement": "TE (%) Transformation Efficiency", "setting": "[1]", "result": 1.27, "unit": "%"},
      {"measurement": "Regeneration capacity of the calli reduced", "setting": "wheat callus; 5 mM", "result": 70, "unit": "%"},
      {"measurement": "Regenerated Embryogenic Lines (%)", "setting": "wheat callus; Bobwhite, 0.5 mM", "result": 85, "unit": "%"},
      {"measurement": "Regenerated Embryogenic Lines (%)", "setting": "wheat callus; Bobwhite, 3 mM", "result": 52, "unit": "%"},
      {"measurement": "Regenerated Embryogenic Lines (%)", "setting": "wheat callus; Bobwhite, 5 mM", "result": 14, "unit": "%"},
      {"measurement": "Regenerated Embryogenic Lines (%)", "setting": "wheat callus; Bobwhite, 10 mM", "result": 4, "unit": "%"},
      {"measurement": "Regenerated Embryogenic Lines (%)", "setting": "wheat callus; Bobwhite, 15 mM", "result": 0, "unit": "%"},
      {"measurement": "Regenerated Embryogenic Lines (%)", "setting": "wheat callus; Bobwhite, 25 mM", "result": 0, "unit": "%"},
      {"measurement": "Regenerated Embryogenic Lines (%)", "setting": "wheat callus; Bobwhite, 50 mM", "result": 0, "unit": "%"},
      {"measurement": "Regenerated Embryogenic Lines (%)", "setting": "wheat callus; Canon, 0.5 mM", "result": 63, "unit": "%"},
      {"measurement": "Regenerated Embryogenic Lines (%)", "setting": "wheat callus; Canon, 3 mM", "result": 44, "unit": "%"},
      {"measurement": "Regenerated Embryogenic Lines (%)", "setting": "wheat callus; Canon, 5 mM", "result": 19, "unit": "%"},
      {"measurement": "Regenerated Embryogenic Lines (%)", "setting": "wheat callus; Canon, 10 mM", "result": 3, "unit": "%"},
      {"measurement": "Regenerated Embryogenic Lines (%)", "setting": "wheat callus; Canon, 15 mM", "result": 0, "unit": "%"},
      {"measurement": "Regenerated Embryogenic Lines (%)", "setting": "wheat callus; Canon, 25 mM", "result": 0, "unit": "%"},
      {"measurement": "Regenerated Embryogenic Lines (%)", "setting": "wheat callus; Canon, 50 mM", "result": 0, "unit": "%"},
      {"measurement": "lethal dose (LD 100) for regeneration response of callus", "setting": "wheat callus; tested in both varieties", "result": 15, "unit": "mM"},
      {"measurement": "In vitro germination, Immature Embryos (%)", "setting": "wheat immature embryos; Bobwhite, 0.5 mM", "result": 56, "unit": "%"},
      {"measurement": "In vitro germination, Immature Embryos (%)", "setting": "wheat immature embryos; Bobwhite, 1 mM", "result": 0, "unit": "%"},
      {"measurement": "In vitro germination, Immature Embryos (%)", "setting": "wheat immature embryos; Bobwhite, 5 mM", "result": 0, "unit": "%"},
      {"measurement": "In vitro germination, Immature Embryos (%)", "setting": "wheat immature embryos; Bobwhite, 10 mM", "result": 0, "unit": "%"},
      {"measurement": "In vitro germination, Immature Embryos (%)", "setting": "wheat immature embryos; Canon, 0.5 mM", "result": 40, "unit": "%"},
      {"measurement": "In vitro germination, Immature Embryos (%)", "setting": "wheat immature embryos; Canon, 1 mM", "result": 0, "unit": "%"},
      {"measurement": "In vitro germination, Immature Embryos (%)", "setting": "wheat immature embryos; Canon, 5 mM", "result": 0, "unit": "%"},
      {"measurement": "In vitro germination, Immature Embryos (%)", "setting": "wheat immature embryos; Canon, 10 mM", "result": 0, "unit": "%"},
      {"measurement": "root formation of non-transgenic shoots", "setting": "wheat in vitro shoots; 5 mM", "result": "not able to form roots"},
      {"measurement": "Rooted Shoots (%)", "setting": "wheat in vitro shoots; Bobwhite, 1 mM", "result": 34, "unit": "%"},
      {"measurement": "Rooted Shoots (%)", "setting": "wheat in vitro shoots; Bobwhite, 3 mM", "result": 13, "unit": "%"},
      {"measurement": "Rooted Shoots (%)", "setting": "wheat in vitro shoots; Bobwhite, 5 mM", "result": 1, "unit": "%"},
      {"measurement": "Rooted Shoots (%)", "setting": "wheat in vitro shoots; Bobwhite, 10 mM", "result": 0, "unit": "%"},
      {"measurement": "Rooted Shoots (%)", "setting": "wheat in vitro shoots; Bobwhite, 15 mM", "result": 0, "unit": "%"},
      {"measurement": "Rooted Shoots (%)", "setting": "wheat in vitro shoots; Bobwhite, 25 mM", "result": 0, "unit": "%"},
      {"measurement": "Rooted Shoots (%)", "setting": "wheat in vitro shoots; Canon, 1 mM", "result": 36, "unit": "%"},
      {"measurement": "Rooted Shoots (%)", "setting": "wheat in vitro shoots; Canon, 3 mM", "result": 11, "unit": "%"},
      {"measurement": "Rooted Shoots (%)", "setting": "wheat in vitro shoots; Canon, 5 mM", "result": 1, "unit": "%"},
      {"measurement": "Rooted Shoots (%)", "setting": "wheat in vitro shoots; Canon, 10 mM", "result": 0, "unit": "%"},
      {"measurement": "Rooted Shoots (%)", "setting": "wheat in vitro shoots; Canon, 15 mM", "result": 0, "unit": "%"},
      {"measurement": "Rooted Shoots (%)", "setting": "wheat in vitro shoots; Canon, 25 mM", "result": 0, "unit": "%"}
    ]},
    {"smiles": "CC(C)[C@@H](N)C(=O)O", "note": "[D-valine]", "values": [
      {"measurement": "concentration range to which seedlings were sensitive (negative selection)", "setting": "[2]", "result": "15 to 20", "unit": "mM"}
    ]},
    {"smiles": "C[C@H](NC(=O)[C@H](C)NC(=O)[C@@H](N)CCP(C)(=O)O)C(=O)O", "note": "[bialaphos]", "values": [
      {"measurement": "ER Escape Rate (% of non-transgenic regenerants out of all selected plants)", "setting": "[3]; [4]", "result": 59, "unit": "%"},
      {"measurement": "TE Transformation Efficiency (% of transgenic plants out of the explants)", "setting": "[3]; [4]", "result": 2.1, "unit": "%"},
      {"measurement": "embryogenic calli regenerated with plants", "setting": "[3]; pRLM167, after 7 weeks of selection, 5 mM D-serine or 3 mg/l bialaphos", "result": 38, "unit": "%"}
    ]}
  ]
}
